Data set [1] deals with mouse. The following applies: Subchronic oral toxicity in rodents, cd1, Feed, dose end: 13 week, group: systemic.
Data set [2] has as its system mouse. The following applies: Carcinogenicity, cd1, Oral, Feed, dose end: 18 month, group: systemic.
The test system of data set [3] is dog. The conditions noted are these: Subchronic oral toxicity in nonrodent, beagle, Feed, dose end: 91 day, group: systemic.
The test system of data set [4] is rat. The following applies: Combined chronic toxicity/carcinogenicity, sprague dawley, Oral, Feed, dose end: 24 month, group: systemic.
The subject of data set [5] is dog. The conditions noted are these: Chronic toxicity; beagle; Oral; Feed; dose end: 52 week; group: systemic; systemic / pathology microscopic / eye / [other] + systemic / pathology microscopic / eye / cataract + systemic / pathology microscopic / ….
For data set [6], the system named is rat. The following applies: Multigenerational reproductive toxicity study, other, Oral, Feed, dose end: 2 generation.
For data set [7], the system named is rat. The following applies: Subchronic oral toxicity in rodents, other, Feed, dose end: 90 day, group: systemic.
The test system of data set [8] is rat. The conditions noted are these: Subchronic oral toxicity in rodents, wistar, Feed, dose end: 28 day, group: systemic.
Data set [9] has as its system dog. The following applies: Subchronic oral toxicity in nonrodent, beagle, Capsule, dose end: 90 day, group: systemic.
Data set [10] concerns rat. The following applies: Subchronic oral toxicity in rodents, wistar, Feed, dose end: 90 day, group: systemic.
For data set [11], the system named is rat. The following applies: Prenatal developmental toxicity study, wistar, Oral, Gavage/Intubation, dose end: 19 GD.
Data set [12] concerns rat. The following applies: Multigenerational reproductive toxicity study, Oral, Feed, dose end: 3 generation, group: offspring.
[13] abbreviates: systemic / hematology / platelet / platelet.
Setting [14] is: systemic / pathology microscopic / liver / fatty change + systemic / pathology microscopic / liver / necrosis + systemic / pathology ….
[15] abbreviates: systemic / hematology / anemia / anemia - nos + systemic / hematology / erythrocyte (rbc) count differential / erythrocyte (rbc) + systemic….
Setting [16] is: systemic / hematology / anemia / anemia - hemolytic + systemic / in life observation / body weight / body weight gain + systemic / ….
[17] abbreviates: group: offspring, systemic / in life observation / body weight / litter weight + developmental / offspring survival late / viability index / viability index.
The mark [18] stands for this setting: group: parental, systemic / clinical chemistry / alanine aminotransferase (alt/sgpt) / alanine aminotransferase (alt/sgpt).
Where [19] appears, read: group: parental, systemic / clinical chemistry / sorbitol dehydrogenase / sorbitol dehydrogenase + systemic / clinical chemistry / alanine aminotransferase (….
Setting [20] is: systemic / clinical chemistry / globulins / globulins.
Where [21] appears, read: systemic / hematology / erythrocyte (rbc) count differential / erythrocyte (rbc) + systemic / hematology / hemoglobin (hgb) / hemoglobin (….
The mark [22] stands for this setting: systemic / clinical chemistry / calcium / calcium + systemic / clinical chemistry / phosphorus / phosphorus + systemic / pathology ….
The mark [23] stands for this setting: systemic / pathology microscopic / kidney / hyaline droplet.
Where [24] appears, read: systemic / clinical chemistry / protein / protein + systemic / in life observation / clinical signs / vomiting + systemic / organ weight / ….
Where [25] appears, read: systemic / pathology microscopic / kidney / hyaline droplet + systemic / clinical chemistry / alanine aminotransferase (alt/sgpt) / alanine ….
Where [26] appears, read: group: developmental, developmental / developmental malformation / bone / full supernumerary.
Setting [27] is: group: maternal, systemic / organ weight / liver / absolute + systemic / pathology microscopic / kidney / vacuolization + systemic / pathology microscopic / ….
Where [28] appears, read: systemic / in life observation / body weight / offspring (pup) weight + systemic / in life observation / food consumption / food consumption.

As to `CC1(c2ccc(Oc3ccccc3)cc2)OC(=O)N(Nc2ccccc2)C1=O` (stereo unspecified) [Famoxadone], the LEL with mouse [1] (setting [13]) was 5.89 mg/kg/day; in the data set on mouse [2] (systemic / organ weight / liver / absolute + systemic / organ weight / liver / relative to body weight), 95.6 mg/kg/day; with dog [3] (setting [15]), 1.4 mg/kg/day; in the data set with rat [4] (setting [16]), 10.7 mg/kg/day; in the data set with dog [5], 8.8 mg/kg/day; in the data set on rat [6] (setting [17]), 53.3 mg/kg/day. Besides, the LEL turned out to be 1.45 mg/kg/day in the data set on rat [6] (setting [18]) and 3.34 mg/kg/day with rat [7] (setting [20]). The NEL is less than 5.89 mg/kg/day in the data set with mouse [1] (setting [13]); 6.78 mg/kg/day in the data set with mouse [2] (setting [14]); less than 1.4 mg/kg/day with dog [3] (setting [15]); 2.15 mg/kg/day in the data set on rat [4] (setting [16]); 1.2 mg/kg/day with dog [5]; 14.2 mg/kg/day in the data set on rat [6] (setting [17]). The NEL is less than 1.45 mg/kg/day in the data set on rat [6] (setting [18]) and less than 3.34 mg/kg/day in the data set with rat [7] (setting [20]). Further, the NOAEL in the data set on mouse [1] (systemic / organ weight / liver / absolute + systemic / organ weight / liver / relative to body weight + systemic / clinical chemistry / …) was found to be 62.4 mg/kg/day; in the data set on mouse [2] (setting [14]) it was 95.6 mg/kg/day; in the data set on dog [3] (systemic / pathology microscopic / eye / cataract + systemic / pathology microscopic / eye / cataract, cortical + systemic / clinical …), 1.3 mg/kg/day; in the data set with rat [4] (setting [16]) it was 2.15 mg/kg/day; in the data set with dog [5] it was 1.2 mg/kg/day; in the data set with rat [6] (setting [17]), 14.2 mg/kg/day. Moreover, the NOAEL in the data set on rat [6] (setting [19]) stood at 11.3 mg/kg/day; in the data set with rat [7] (setting [21]), 3.34 mg/kg/day. The LOAEL in the data set with mouse [1] (systemic / organ weight / liver / absolute + systemic / organ weight / liver / relative to body weight + systemic / hematology / anemia / …) was 534 mg/kg/day; with mouse [2] (setting [14]) it was 274 mg/kg/day; with dog [3] (systemic / pathology microscopic / eye / cataract + systemic / pathology microscopic / eye / cataract, cortical) it was 10 mg/kg/day; in the data set on rat [4] (systemic / hematology / anemia / anemia - hemolytic + systemic / in life observation / body weight / body weight gain), 10.7 mg/kg/day; in the data set with dog [5] it was 8.8 mg/kg/day; in the data set on rat [6] (group: offspring, systemic / in life observation / body weight / litter weight) it was 53.3 mg/kg/day. For the same compound, the LOAEL is 44.7 mg/kg/day in the data set on rat [6] (setting [19]) and 13 mg/kg/day in the data set with rat [7] (setting [21]).
For `N#CCNC(=O)c1cnccc1C(F)(F)F` [Flonicamid], the LEL in the data set on rat [8] (setting [22]) came to 7.47 mg/kg/day; in the data set on dog [9] (setting [24]) it was 20 mg/kg/day; in the data set with rat [10] (setting [23]), 12.1 mg/kg/day; in the data set on rat [11] (setting [26]), 500 mg/kg/day; with rat [11] (setting [27]), 500 mg/kg/day. Moreover, the NEL amounted to 3.61 mg/kg/day with rat [8] (setting [22]); 8 mg/kg/day in the data set on dog [9] (systemic / in life observation / clinical signs / ataxia + systemic / in life observation / clinical signs / defecation (diarrhea) + …); 3.08 mg/kg/day in the data set on rat [10] (setting [25]); 100 mg/kg/day in the data set on rat [11] (setting [26]); 100 mg/kg/day in the data set on rat [11] (setting [27]). Also, the NOAEL in the data set on rat [8] (setting [22]) was 7.47 mg/kg/day; in the data set on dog [9] (setting [24]), 8 mg/kg/day; with rat [10] (setting [25]), 12.1 mg/kg/day; in the data set on rat [11] (setting [26]), 100 mg/kg/day; with rat [11] (setting [27]), 100 mg/kg/day. Also, the LOAEL turned out to be 36.5 mg/kg/day in the data set with rat [8] (setting [23]); 20 mg/kg/day in the data set on dog [9] (setting [24]); 60 mg/kg/day with rat [10] (setting [23]); 500 mg/kg/day with rat [11] (setting [26]); 500 mg/kg/day with rat [11] (setting [27]).
As to `CCCCCCCCCc1ccc(OP(Oc2ccc(CCCCCCCCC)cc2)Oc2ccc(CCCCCCCCC)cc2)cc1` [Phenol, nonyl-, phosphite (3:1)], in the data set with rat [12] (setting [28]), the LOAEL is more than 500 mg/kg/day, the NEL was found to be 50 mg/kg/day and the NOAEL was not below 500 mg/kg/day. This compound registered an LEL in the data set on rat [12] (systemic / in life observation / food consumption / food consumption) of 167 mg/kg/day.

(Values after EPA's ToxRefDB 2.)
